Results on four compounds are retold here after patent publication US20150105252A1, “SUBSTITUTED PYRAZOLES AS HERBICIDES” (E I DU PONT DE NEMOURS AND COMPANY, priority 2013, published 2015).

Test [1] has as its system morningglory. The test is described as follows: Test A postemergence. The format is in vivo, Ipomoea spp. In a few lines: (§1)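 Visual injury rating, 0–100 (0 no effect, 100 complete control), vs untreated controls ~10 days after treatment in greenhouse. Pre: directed soil spray on seeded loam/sand. Post: 2–10 cm plants, 1–2 leaf stage. Formulation: non-phytotoxic solvent mix + surfactant.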

Test [2] relates to corn. The test is described as follows: Test A preemergence. The format is in vivo, Zea mays. The note with it: 0 to 100 scale. In a few lines: as §1
In test [3] the test system is barnyardgrass. The test is described as follows: Test A postemergence. Format: in vivo, Echinochloa crus-galli. As to conditions: Postemergence. In a few lines:
as §1

Test [4] deals with crabgrass, large. The test is described as follows: Test A postemergence. The format is in vivo, Digitaria sanguinalis. In a few lines: as §1
The subject of test [5] is crabgrass, large. The test is described as follows: Test C postemergence. The format is in vivo, Digitaria sanguinalis. The note with it: for Crabgrass, Large plant response rating: scale 0 to 100. From the text:
(§2) Seeds of plant species selected from blackgrass (Alopecurus myosuroides), ryegrass, Italian (Italian ryegrass, Lolium multiflorum), wheat (winter wheat, Triticum aestivum), galium (catchweed bedstraw, Galium aparine), corn (Zea mays), crabgrass, large (large crabgrass, Digitaria sanguinalis), foxtail, giant (giant foxtail, Setaria faberii), johnsongrass (Sorghum halepense), lambsquarters (Chenopodium album), morningglory (Ipomoea coccinea), nutsedge, yellow (yellow nutsedge, Cyperus esculentus), pigweed (redroot pigweed, Amaranthus retroflexus), ragweed (common ragweed, Ambrosia elation), soybean (Glycine max), barnyardgrass (Echinochloa crus-galli), oilseed rape (Brassica napus), waterhemp (common waterhemp, Amaranthus rudis), oat, wild (wild oat, Avena fatua), kochia (Kochia scoparia), Surinam grass (Brachiaria decumbens), foxtail, green (green foxtail, Setaria viridis), goosegrass (Eleusine indica), bromegrass, downy (downy bromegrass, Bromus tectorum), nightshade (eastern black nightshade, Solanum ptycanthum), cocklebur (common cocklebur, Xanthium strumarium), cupgrass, woolly (woolly cupgrass, Eriochloa villosa), bermudagrass (Cynodon dactylon), sunflower, (common oilseed sunflower, Helianthus annuus), Russian thistle (Salsola kali), and velvetleaf (Abutilon theophrasti) were planted into a blend of loam soil and sand and treated preemergence with test chemicals formulated in a non-phytotoxic solvent mixture which included a surfactant.
(§3) At the same time, plants selected from these crop and weed species and also chickweed (common chickweed, Stellaria media), canarygrass (littleseed canarygrass, Phalaris minor), and deadnettle (henbit deadnettle, Lamium amplexicaule), were planted in pots containing Redi-Earth® planting medium (Scotts Company, 14111 Scottslawn Road, Marysville, Ohio 43041) comprising spaghnum peat moss, vermiculite, wetting agent and starter nutrients and treated with postemergence applications of test chemicals formulated in the same manner. Plants ranged in height from 2 to 18 cm (1- to 4-leaf stage) for postemergence treatments. Treated plants and controls were maintained in a greenhouse for 13 to 15 days, after which time all species were compared to controls and visually evaluated. Plant response ratings, summarized in Table C, are based on a scale of 0 to 100 where 0 is no effect and 100 is complete control. A dash (-) response means no test result.

The test system of test [6] is foxtail, giant. The test is described as follows: Test A postemergence. Format: in vivo, Setaria faberii. A digest of the protocol: as §1
The test system of test [7] is foxtail, giant. The test is described as follows: Test A preemergence. As to conditions: 0 to 100 scale. The format is in vivo, Setaria faberii. A digest of the protocol: as §1
Test [8] relates to nutsedge, yellow. The test is described as follows: Test C postemergence. The format is in vivo, Cyperus esculentus. As to conditions: for Nutsedge, Yellow plant response rating: scale 0 to 100.
Description: as §2, §3

Test [9] deals with morningglory. The test is described as follows: Test C preemergence. As to conditions: for Plant response rating (scale of 0 to 100), Morningglory: Preemergence, 250 g ai/ha; for Morningglory plant response rating / Plant response rating, Morningglory: preemergence; for Plant response rating, Morningglory: 62 g ai/ha, scale 0 to 100, 0 = no effect, 100 = complete control. The format is in vivo, Ipomoea coccinea.
Description: as §2, §3

The subject of test [10] is galium. The test is described as follows: Test C postemergence. The format is in vivo, Galium aparine. As to conditions: for Galium plant response rating: scale 0 to 100.
Description: as §2, §3

For test [11], the system named is pigweed. The test is described as follows: Test C preemergence. Format: in vivo, Amaranthus retroflexus. The note with it: for Plant response rating (scale of 0 to 100), Pigweed: Preemergence, 250 g ai/ha; for Pigweed plant response rating / Plant response rating, Pigweed: preemergence; for Plant response rating, Pigweed: 62 g ai/ha, scale 0 to 100, 0 = no effect, 100 = complete control.
Description: as §2, §3

[12] abbreviates: Postemergence, 1000 g ai/ha, visual rating after approx. 10 days, 0 to 100 scale (0 no effect, 100 complete control).
[13] abbreviates: Preemergence, 1000 g ai/ha, 0 no effect, 100 complete control.
The mark [14] stands for this setting: 1000 g ai/ha, visual rating after approx. 10 days, 0 to 100 scale (0 no effect, 100 complete control).
The mark [15] stands for this setting: postemergence, 250 g ai/ha, scale 0 to 100 (0 no effect, 100 complete control).
Setting [16] is: postemergence, 62 g ai/ha, scale 0 to 100, 0 no effect, 100 complete control.
[17] abbreviates: postemergence, 125 g ai/ha, scale 0 to 100, 0 no effect, 100 complete control.
The mark [18] stands for this setting: 31 g ai/ha, scale 0 to 100 (0 no effect, 100 complete control), 13 to 15 days.
Setting [19] is: 125 g ai/ha, scale 0 to 100, 0 is no effect, 100 is complete control.
Setting [20] is: Postemergence, 500 g ai/ha, visual rating after approx. 10 days, 0 to 100 scale (0 no effect, 100 complete control).
The mark [21] stands for this setting: postemergence, 125 g ai/ha, about 10 days, visual rating on 0 to 100 scale (0 no effect, 100 complete control).
Where [22] appears, read: Preemergence, 500 g ai/ha, 0 no effect, 100 complete control.
Where [23] appears, read: preemergence, 125 g ai/ha, visual injury, approx. 10 days.
[24] abbreviates: 125 g ai/ha, 0 to 100 scale, 0 no effect, 100 complete control.
[25] abbreviates: 500 g ai/ha, visual rating after approx. 10 days, 0 to 100 scale (0 no effect, 100 complete control).

As to `CCCNC(=O)c1cc(CC)n(Cc2cccc(OC(F)(F)F)c2)n1` [Compound 27], the “Morningglory plant response rating” value in [1] (setting [12]) was found to be 100. In addition, the “Corn plant response rating” value in test [2] (setting [13]) worked out at 30. Also, the “Barnyardgrass plant response rating” value in test [3] (setting [14]) stood at 60. Besides, the “Crabgrass, Large plant response rating” value in test [4] (setting [12]) is given as 80; in [5] (Postemergence, 31 g ai/ha), 0. Further, the “Plant response rating, Crabgrass, Large” value in test [5] (setting [15]) turned out to be 45; in test [5] (setting [16]), 5; in [5] (setting [17]) it was 10. Further, the “Foxtail, Giant plant response rating” value in test [6] (setting [12]) was 70; in test [7] (setting [13]) it was 90. In addition, the “Nutsedge, Yellow plant response rating” value in [8] (Postemergence, 31 g ai/ha) came out at 0. In addition, the “Plant response rating, Nutsedge, Yellow” value in test [8] (setting [15]), in test [8] (setting [16]) and in [8] (setting [17]) was 0 in each case.
As for `CCONC(=O)c1cc(CC)n(Cc2cccc(OC(F)(F)F)c2)n1` [Compound 72], the “Plant response rating (scale of 0 to 100), Morningglory” value in [9] stood at 85. Further, the “Morningglory plant response rating” value in test [9] (setting [18]) stood at 15; in test [9] (setting [19]) it was 85; in [1] (setting [20]), 90; in test [1] (setting [21]), 80. For the same compound, in test [9] (13 to 15 days), the “Plant response rating, Morningglory” value was found to be 65. Moreover, the “Corn plant response rating” value is given as 70 in test [2] (setting [22]) and 50 in test [2] (setting [23]). In addition, the “Galium plant response rating” value in test [10] (Postemergence, 31 g ai/ha) was 45; in [10] (postemergence, 62 g ai/ha), 70. Also, the “Plant response rating, Galium” value in test [10] (setting [15]) is 80; in test [10] (setting [17]) it was 70. Further, the “Barnyardgrass plant response rating” value in test [3] (setting [24]) and in [3] (setting [25]) was 90 each time. The “Crabgrass, Large plant response rating” value in test [4] (setting [20]) stood at 90; in [4] (setting [21]), 80; in [5] (Postemergence, 31 g ai/ha), 5; in [5] (postemergence, 62 g ai/ha), 5. Further, the “Plant response rating, Crabgrass, Large” value in [5] (setting [15]) was 25; in test [5] (setting [17]), 5. Further, the “Plant response rating (scale of 0 to 100), Pigweed” value in test [11] is reported as 100. For the same compound, the “Pigweed plant response rating” value in [11] (setting [18]) and in test [11] (setting [19]) was 100 throughout. Further, the “Plant response rating, Pigweed” value in test [11] (13 to 15 days) is listed as 100. Besides, the “Foxtail, Giant plant response rating” value in test [6] (setting [20]) is on record as 90; in test [6] (setting [21]), 80; in [7] (setting [22]), 100; in test [7] (setting [23]) it was 70. The “Nutsedge, Yellow plant response rating” value in test [8] (Postemergence, 31 g ai/ha) was determined as 0; in [8] (postemergence, 62 g ai/ha), 0. Further, the “Plant response rating, Nutsedge, Yellow” value in test [8] (setting [15]) and in [8] (setting [17]) was 0 throughout.
For the compound `CCc1cc(C(=O)NOC(C)C)nn1Cc1cccc(OC(F)(F)F)c1` [Compound 70], the “Plant response rating (scale of 0 to 100), Morningglory” value in test [9] is listed as 95. Besides, the “Morningglory plant response rating” value is reported as 0 in test [9] (setting [18]), 75 in [9] (setting [19]), 100 in test [1] (setting [20]) and 100 in [1] (setting [21]). Moreover, the “Plant response rating, Morningglory” value in test [9] (13 to 15 days) is listed as 25. In addition, the “Corn plant response rating” value in [2] (setting [22]) stood at 80; in test [2] (setting [23]), 50. In test [10] (Postemergence, 31 g ai/ha), the “Galium plant response rating” value is reported as 70. For the same compound, the figures for the “Plant response rating, Galium” value in [10] (setting [15]), in [10] (setting [16]) and in [10] (setting [17]) were 90, 70 and 75, respectively. For the same compound, the results for the “Barnyardgrass plant response rating” value in test [3] (setting [24]) and in [3] (setting [25]) were 80 and 90, respectively. For the same compound, the “Crabgrass, Large plant response rating” value in [4] (setting [20]) worked out at 90; in [4] (setting [21]), 90; in test [5] (Postemergence, 31 g ai/ha), 5. The “Plant response rating, Crabgrass, Large” value in [5] (setting [15]) was found to be 45; in test [5] (setting [16]), 10; in [5] (setting [17]), 40. In test [11], the “Plant response rating (scale of 0 to 100), Pigweed” value is given as 100. Moreover, the “Pigweed plant response rating” value in test [11] (setting [18]) and in test [11] (setting [19]) was 100 each time. Also, in test [11] (13 to 15 days), the “Plant response rating, Pigweed” value was found to be 100. For the same compound, the “Foxtail, Giant plant response rating” value in test [6] (setting [20]) stood at 90; in [6] (setting [21]) it was 90; in test [7] (setting [22]) it was 100; in test [7] (setting [23]), 90. Moreover, the “Nutsedge, Yellow plant response rating” value in test [8] (Postemergence, 31 g ai/ha) worked out at 0. In addition, the “Plant response rating, Nutsedge, Yellow” value in test [8] (setting [15]) was 20; in [8] (setting [16]), 0; in test [8] (setting [17]), 0.
Regarding `CCc1cc(C(=O)NCC(F)(F)F)nn1Cc1cccc(OC(F)(F)F)c1` [Compound 20], in test [1] (setting [12]), the “Morningglory plant response rating” value is listed as 100. The “Corn plant response rating” value in test [2] (setting [13]) came to 20. Moreover, the “Barnyardgrass plant response rating” value in test [3] (setting [14]) worked out at 60. Moreover, the “Crabgrass, Large plant response rating” value in test [4] (setting [12]) is listed as 80; in [5] (Postemergence, 31 g ai/ha), 10. Moreover, the results for the “Plant response rating, Crabgrass, Large” value in test [5] (setting [15]), in [5] (setting [16]) and in test [5] (setting [17]) were 45, 20 and 35, respectively. In addition, the “Foxtail, Giant plant response rating” value in [6] (setting [12]) came out at 70; in test [7] (setting [13]), 100. Besides, in [8] (Postemergence, 31 g ai/ha), the “Nutsedge, Yellow plant response rating” value was determined as 0. For the same compound, the “Plant response rating, Nutsedge, Yellow” value in test [8] (setting [15]), in test [8] (setting [16]) and in [8] (setting [17]) was 0 each time.
